According to patent publication US6821988B2, “3-cyanoquinolines as inhibitors of EGF-R and HER2 kinases” (Wyeth Holdings Corporation, priority 2001, dated 2004):
Converted amounts (≈) assume the structure as drawn.

Assays:
[1] = system: HER2-3T3 (murine fiboblasts transfected with human HER2); assay: Inhibition of cell growth, sulforhodamine B assay, HER2-3T3; format: cell-based; conditions: HER2-3T3, 2 days; for IC50: Mus musculus, 48 h, read-out: Inhibition of Cancer Cell Growth in vitro IC50, HER2-3T3
Description: (§1) […], A431 (epidermoid carcinoma), SKBR3 (breast carcinoma), SW620 (colon carcinoma), and MDA-MB435 (breast carcinoma), BT474 (breast carcinoma), and two murine lines, 3T3 (murine fiboblasts) and HER2-3T3 (murine fiboblasts transfected with human HER2) were used for cell proliferation assays. Cells were maintained in RPMI -1640 medium supplemented with 5% fetal bovine serum. Cells were plated in 96-well plates at the densities of 2.5×10^4/ml for 3T3 and 3T3/HER2 and 5.0×10^4/ml for the rest of the cell lines. On the next day, compounds were dosed at 0.5, 5, 50, 500, and 5000 ng/ml and cultured for 2 days. At the end of incubation, cell survival was determined by the sulforhodamine B assay as previously described (Skehan, P; Stornet, R.; Scudiero, D.; Monks, A.; McMahon, J.; Vistica D., Warren, J.; Bokbosch, H.; Kenny, S.; Boyd, M. New Colorimetric Cytotoxic Assay for Anticancer-Drug Screening. J. Natl. Cancer Inst. 1990, 82, 1107-1112). The IC50 values (the concentration needed to inhibit cell growth by 50%) were obtained from the growth curves and are shown below in Table 2 where the results of multiple determinations are included.

SKBR3 (breast carcinoma) = assay: Inhibition of cancer cell growth, sulforhodamine B assay, SKBR3; format: cell-based, human; conditions: SKBR3, 2 days; for IC50: Homo sapiens, SK-BR-3, 48 h, read-out: Inhibition of Cancer Cell Growth in vitro IC50, SKBR3
Description: as §1

SW620 (colon carcinoma) = assay: Inhibition of cancer cell growth, sulforhodamine B assay, SW620; format: cell-based, human; conditions: SW620, 2 days; for IC50: Homo sapiens, SW-620, 48 h, read-out: Inhibition of Cancer Cell Growth in vitro IC50, SW620
Description: as §1

[2] = system: A431 (epidermoid carcinoma); assay: Inhibition of cancer cell growth, sulforhodamine B assay, A431; format: cell-based, human; conditions: A431, 2 days; for IC50: Homo sapiens, A-431, 48 h, read-out: Inhibition of Cancer Cell Growth in vitro IC50, A431
Description: as §1

[3] = biological target: T1, human HER2 cytoplasmic domain (HER2-CD, amino acid 676-1255) (Homo sapiens, UniProt P04626); assay: Inhibition of HER2 kinase autophosphorylation, recombinant enzyme, DELFIA/time-resolved fluorometry; format: biochemical
T1 construct: human HER2 cytoplasmic domain (HER2-CD, amino acid 676-1255); made in house; host or cells: Sf-9 insect cells, baculovirus (pBlueBacHis2B)
T1 sequence (P04626 676-1255): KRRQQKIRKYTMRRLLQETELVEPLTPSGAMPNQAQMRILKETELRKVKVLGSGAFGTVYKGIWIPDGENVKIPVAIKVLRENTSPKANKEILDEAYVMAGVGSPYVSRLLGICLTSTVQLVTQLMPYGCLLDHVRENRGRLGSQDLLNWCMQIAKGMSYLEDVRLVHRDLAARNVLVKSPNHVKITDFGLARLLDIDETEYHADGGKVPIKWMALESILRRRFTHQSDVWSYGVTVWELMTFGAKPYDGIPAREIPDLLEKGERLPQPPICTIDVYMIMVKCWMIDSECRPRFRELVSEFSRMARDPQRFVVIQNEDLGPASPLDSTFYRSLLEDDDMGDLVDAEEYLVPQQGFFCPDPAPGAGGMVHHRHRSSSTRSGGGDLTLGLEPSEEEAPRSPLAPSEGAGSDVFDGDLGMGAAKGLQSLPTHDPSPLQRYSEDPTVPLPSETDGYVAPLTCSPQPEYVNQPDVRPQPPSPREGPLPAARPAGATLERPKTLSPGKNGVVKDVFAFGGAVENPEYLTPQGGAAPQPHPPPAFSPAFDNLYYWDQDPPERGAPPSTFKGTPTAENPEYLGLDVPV
Description: (§2) A 1.7 kb cDNA encoding human HER2 cytoplasmic domain (HER2-CD, amino acid 676-1255) and 1.6 kb cDNA for EGFR cytoplasmic domain (EGFR-CD, amino acid 645-1186) were cloned into baculoviral expression vectors, pBlueBacHis2B (Invitrogen) and pFASTBacHTc (GIBCO), separately. A sequence encoding (His)6 is located at the 5′ end upstream to HER2 and EGFR sequences. Sf-9 cells were infected at moi=10 for 3 days for protein expression. Sf-9 cell pellets were solubilized on ice in buffer containing 50 mM HEPES, pH 7.4, 10 mM NaCl, 1% Triton, 10 μM ammonium molybdate, 100 μM sodium vanadate, 10 μg/ml aprotinin, 10 μg/ml leupeptin, 10 μg/ml pepstatin, and 16 ug/ml benzamidine HCl for 20 min followed by 20 min centrifugation. Crude extract supernatant was passed through equilibrated Ni-NTA superflow packed column (Qiagen, Valencia, Calif.) and wash with 10 mM, and 100 mM imidazole to remove unspecific binding. Histidine-tagged proteins were eluted with 250 mM and 500 mM imidazole and dialyzed against 50 mM NaCl, 20 mM HEPES, 10% glycerol and 1 μg/ml each of aprotinin, leupeptin and pepstatin for 2 h. All the purification procedure was performed at 4° C. or on ice. Purified materials were subjected for electrophoresis followed by Coommassie blue stain to determine the purity of the preparation and Western blot for the identity of protein. Enzymes were aliquoted and stored at −80° C.
(§3) Inhibition of EGFR and HER2 kinase autophosphorylation was measured by a DELFIA/time-resolved fluorometry assay. Compounds were dissolved in 100% DMSO and diluted to the appropriate concentrations with 25 mM HEPES, pH 7.4. In each well, 10 μl of compound was incubated with 10 μl of recombinant EGF-R or HER2 enzyme (1:80 dilution in 100 mM HEPES) for 10 min at room temperature. Then, 10 μl of 5×buffer (containing 20 mM HEPES, 2 mM MnCl2, 100 uM Na3VO4 and 1 mM DTT) and 20 μl of 0.1 mM ATP/50 mM MgCl2 was added for 1 h. Positive and negative controls were included in each plate by incubation of enzyme with or without ATP/MgCl2. At the end of incubation, liquid was aspirated and washed three times with wash buffer. 75 μl (400 ng).of europium-labeled anti-phosphotyrosine antibody was added to each well for another hour of incubation. After wash, enhancement solution was added and the signal was detected by Victor (Wallac Inc) with excitation at the wavelength of 340 nm and emission at the wavelength of 615 nm. All reagents were supplied by Wallac Inc (Wallac/Perkin-Elimer). Percentage of autophosphorylation inhibition by compound was calculated by […]. IC50 values were obtained from curves of percentage inhibition with 8 doses of compound.

[4] = system: MDA-MB435 (breast carcinoma); assay: Inhibition of cancer cell growth, sulforhodamine B assay, MDA-MB435; format: cell-based, human; conditions: MDA-MB435, 2 days
Description: as §1

3T3 (murine fiboblasts) = assay: Inhibition of cell growth, sulforhodamine B assay, 3T3; format: cell-based; conditions: 3T3, 2 days; for IC50: Mus musculus, 48 h, read-out: Inhibition of Cancer Cell Growth in vitro IC50, 3T3
Description: as §1

[5] = biological target: T2, EGFR cytoplasmic domain (EGFR-CD, amino acid 645-1186) (Homo sapiens, UniProt P00533); assay: Inhibition of EGF-R kinase autophosphorylation, recombinant enzyme, DELFIA/time-resolved fluorometry; format: biochemical
T2 construct: EGFR cytoplasmic domain (EGFR-CD, amino acid 645-1186); made in house; host or cells: Sf-9 insect cells, baculovirus (pFASTBacHTc)
T2 sequence (P00533 669-1210): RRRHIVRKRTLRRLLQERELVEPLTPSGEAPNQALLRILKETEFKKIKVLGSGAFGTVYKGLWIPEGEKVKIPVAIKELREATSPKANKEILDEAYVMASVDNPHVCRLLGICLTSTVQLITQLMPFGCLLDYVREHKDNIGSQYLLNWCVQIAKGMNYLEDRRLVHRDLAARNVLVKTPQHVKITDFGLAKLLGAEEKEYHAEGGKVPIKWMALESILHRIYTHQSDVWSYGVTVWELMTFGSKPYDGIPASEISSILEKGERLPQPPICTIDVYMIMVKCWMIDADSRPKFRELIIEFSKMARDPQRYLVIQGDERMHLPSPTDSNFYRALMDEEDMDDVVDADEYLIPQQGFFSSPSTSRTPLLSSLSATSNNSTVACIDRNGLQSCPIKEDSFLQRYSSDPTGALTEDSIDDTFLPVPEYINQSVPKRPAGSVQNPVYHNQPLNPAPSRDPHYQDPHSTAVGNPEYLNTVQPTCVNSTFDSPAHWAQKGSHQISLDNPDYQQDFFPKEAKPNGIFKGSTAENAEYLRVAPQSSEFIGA
Description: as §2, §3

IC50 (SKBR3 (breast carcinoma)) [µg/mL]	Inhibition of Cancer Cell Growth in vitro IC50, SKBR3 (SKBR3 (breast carcinoma)) [µg/mL]	melting point [°C]	IC50 (SW620 (colon carcinoma)) [µg/mL]	Inhibition of Cancer Cell Growth in vitro IC50, SW620 (SW620 (colon carcinoma)) [µg/mL]	Inhibition of Cancer Cell Growth in vitro IC50, A431 [2] [µg/mL]	IC50 [2] [µg/mL]	inhibition at 2 µg/mL ([3]; read-out: HER2 % Inhibition at 2 μg/mL) [%]	IC50 ([4]; Homo sapiens, MDA-MB-435, 48 h, read-out: Inhibition of Cancer Cell Growth in vitro IC50, MDA-MB435) [µg/mL]	Inhibition of Cancer Cell Growth in vitro IC50, MDA-MB435 [4] [µg/mL]	EGF-R IC50 [5] [µg/mL]	IC50 ([3]; recombinant HER2 autophosphorylation) [µM]	Structure (SMILES)	Inhibition of Cancer Cell Growth in vitro IC50, HER2-3T3 [1] [µg/mL]	IC50 [1] [µg/mL]	Inhibition of Cancer Cell Growth in vitro IC50, 3T3 (3T3 (murine fiboblasts)) [µg/mL]	IC50 (3T3 (murine fiboblasts)) [µg/mL]
0.129 (≈ 0.221 µM)	0.128	139 to 143	2.95 (≈ 5.06 µM)	2.58	0.466	0.572 (≈ 0.981 µM)	57	4.05 (≈ 6.95 µM)	3.25	–	–	COc1cc2ncc(C#N)c(Nc3ccc(F)c(Cl)c3)c2cc1NC(=O)CC(CN1CCC(O)C1)N1CCC(O)C1 (stereo not drawn) [Example 2, N-[4-(3-Chloro-4-fluoro-phenylamino)-3-cyano-7-methoxy-quinolin-6-yl]-3,4-bis-(3-hydroxy-pyrrolidin-1-yl)-butyramide]	0.702	1.26 (≈ 2.16 µM)	4.39	4.47 (≈ 7.67 µM)
0.11 (≈ 0.234 µM)	0.17	–	1.1 (≈ 2.34 µM)	–	0.27	0.48 (≈ 1.02 µM)	–	–	–	0.33	10	CCOc1cc2ncc(C#N)c(Nc3ccc(F)c(Cl)c3)c2cc1NC(=O)CC(C)N(C)C (stereo not drawn) [Example 3, N-[4-(3-Chloro-4-fluoroanilino)-3-cyano-7-ethoxy-6-quinolinyl]-3-(dimethylamino)butanamide]	–	1.7 (≈ 3.62 µM)	–	1.3 (≈ 2.77 µM)
–	–	102 to 104	–	–	–	–	–	–	–	–	–	CCOc1cc2ncc(C#N)c(Nc3ccc(OCc4ccccc4)c(Cl)c3)c2cc1NC(=O)CC(CN(C)C)N(C)C (stereo not drawn) [Example 9, N-{4-[4-(Benzyloxy)-3-chloroanilino]-3-cyano-7-ethoxy-6-quinolinyl}-3,4-bis(dimethylamino)butanamide]	–	–	–	–
